Assay results reported in patent US9180163B2, “Parstatin peptides” (priority 2009, dated 2015).
Ends that are not written are not given here.

What was measured:
[1] = tested on: myocardial ischemia-reperfusion injury in Sprague Dawley rats; conditions: for infarct size, inhibitor alone: without parstatin (1-26), L-NMA 15 μg/Kg, ODQ 1 mg/kg, glibenclamide 3 mg/kg, atractyloside 3 mg/Kg
Procedure: Parstatin (1-41) was used in an in vivo rat model of cardiac ischemia and reperfusion, and in an in vitro isolated rat heart model of ischemia-reperfusion injury.
For in vivo infarct size studies, rats were anesthetized with pentobarbital sodium (50 mg/Kg) and heparin (1000 IU/Kg) and underwent 30 min of regional ischemia followed by 120 min of reperfusion. Parstatin (1-41) was administered-intravenously over 1 min starting 15 min prior to ischemia, or 15 min after the onset of ischemia, or 10 seconds after the onset of reperfusion in separate series of experiments (n=6/group).
To induce ischemia, ligature was positioned around the left main coronary artery and threaded through a plastic snare to permit reversible occlusion of the coronary artery. Coronary occlusion was induced by clamping the snare onto the heart and reperfusion was achieved by releasing the snare. At the end of reperfusion, the coronary artery was re-occluded and the risk zone was delineated by perfusion of 0.5% Evans' blue into the aortic cannula. Hearts were sectioned and incubated in 1% triphenyltetrazolium chloride in phosphate buffer for 15 min to define white necrotic tissue when fixed in 10% formalin for 24 h. Area at risk (AAR) and infarct-to-risk rations were determined by computerized planimetry using J-Image v.i.6 software (NIH, Bethesda, Mass.).
For in vivo infarct size/ischemia-reperfusion studies, rats were anesthetized with pentobarbital sodium (50 mg/Kg) and heparin (1000 IU/Kg) and underwent 30 min of regional ischemia followed by 120 min of reperfusion. Human hydrophobic parstatin (1-26) fragment was administered intravenously over 1 min at one of three time points: 1) starting 15 min prior to ischemia, 2) 15 min after the onset of ischemia, or 3) 10 seconds after the onset of reperfusion in a separate series of experiments (n=6/group).
Ischemia was induced by placement of a ligature around the left main coronary artery which was threaded through a plastic snare to permit reversible occlusion of the coronary artery. Coronary occlusion was induced by clamping the snare onto the heart and reperfusion was achieved by releasing the snare. At the end of reperfusion, the coronary artery was re-occluded and the risk zone was delineated by perfusion 0.5% Evans' blue into the aortic cannula.
Hearts were sectioned and incubated in 1% triphenyltetrazolium chloride in phosphate buffer for 15 min to define white necrotic tissue when fixed in 10% formalin for 24 h. Area at risk (AAR) and infarct-to-risk rations were determined by computerized planimetry using J-Image v.i.6 software (NIH, Bethesda, Mass.). The principal endpoint of these studies was infarct size expressed as a percentage of the area at risk.

[2] = tested on: isolated rat hearts; assay: isolated rat heart ischemia-reperfusion; conditions: for infarct size / LVDP, inhibitor alone: without parstatin (1-41), L-NMA 100 μM, ODQ 10 μM
Procedure: For in vitro studies, excised hearts were retrogradely perfused through the aorta with a modified Krebs buffer. Coronary flow rate was determined by timed collection of the coronary effluent. A saline-filled latex balloon connected to a pressure transducer was inserted into the left […] (LV), and baseline end-diastolic pressure was set at 5-10 mmHg. Heart rate, LV end-diastolic pressure and LV developed pressures (LVDP) were recorded continuously. The measurements for post-ischemic recovery of LVDP used for comparison were taken at 180 min of reperfusion. After stabilization for 15-20 min, the hearts (n=6/group) were subjected to 30 min of regional ischemia, followed by 180 min of reperfusion. Different concentrations of […] (1-41) were perfused 15 min prior to coronary occlusion until occlusion. Control hearts produced an infarct size of 51±3% of the area at risk (FIG. 19A). […] A picture representation of infarct in control versus […] Similarly, […] (1-41) increased recovery of LVDP in a concentration-dependent manner (FIG. 19B). Again, the optimal concentration was 1 μM which produced a 23% recovery of LVDP (FIG. 19B).

[3] = tested on: Erk1/2 (p42/44 MAPK) in HUVEC cells; assay: Erk1/2 phosphorylation immunoblot (MAP kinase pathway); format: cell-based, human; conditions: pretreatment 1 h, 10 μM; stimulated by FBS, bFGF or VEGF
Procedure: The MAPK (Erk1/2, p42/44) cascade mediates mitogenesis. […] HUVEC cells were cultured in 35 mm tissue culture dishes. After reaching 80% confluency, cells were growth factor-starved and subsequently stimulated for 10 min with vehicle or indicated agents. In combination experiments, cells were pretreated with parstatin or other peptides for 10 to 60 min.
Attached cells were lysed with Laenmli sample buffer, resolved in 10% SDS-PAGE, and transferred to nitrocellulose membranes. Membranes were incubated with primary antibodies against phospho p42/44 mitogen-activated protein kinases (p-Erk1/2, New England Biolabs, UK) and p42/44 Erk1/2 (t-Erk1/2, New England Biolabs, UK). Membranes were then probed with secondary antibodies horseradish peroxidase-conjugated, and proteins were visualized by chemiluminescent detection.

[4] = tested on: HUVEC cells; assay: [3H]-thymidine incorporation (DNA synthesis); format: cell-based, human; conditions: 10 μM, bFGF 5 ng/ml
Procedure: The ability of parstatin (1-41) to inhibit DNA synthesis of endothelial cells was assessed in thymidine incorporation assays. HUVEC cells were grown until 60-80% confluent in 24-well plates. Cells were treated with indicated peptides in serum-free medium containing either 0.5% BSA, or VEGF, or bFGF, or medium containing 5% FBS, or epidermal growth factor (EGF), or heparin-binging EGF (HB-EGF) for 18 hours. All cells were pulsed with 0.5 μCi/ml [3H]-thymidine (ICN Biomedicals Inc., Irvine Calif.) for additional 6 h. Radioactivity incorporated into DNA was determined in liquid scintillation counter.

[5] = tested on: retinal neovascularization in C57BL/6 mice; format: in vivo; conditions: mouse, in vivo
Excerpt: Parstatin (1-41), hydrophobic parstatin (1-26) fragment and hydrophilic parstatin (24-41) fragment were used in an in vivo mouse model of retinal neovascularization. In particular, oxygen-induced retinopathy was used to generate retinal neovascularization as a preclinical disease model for retinopathy of prematurity and other retinal neovascular diseases such as diabetic retinopathy. In this model, exposing newborn mice to hyperoxia prompts regression or delay of retinal vascular development, followed by abnormal angiogenesis after their return to normal oxygen levels. Mainly, this model mirrors the events that occur during retinopathy of prematurity, when infants are removed from oxygen-rich incubators, a condition involving pathological neovascularization that can affect premature infants and result in permanent visual loss. In recent years, the use of this model has been extended to the general study of ischemic vasculopathies, such us diabetic retinopathy, and related antiangiogenic interventions, and it is now used extensively in both basic and applied research environments.
Pathogen-free C57BL/6 mice were treated in accordance with the Association for Research in Vision and Ophthalmology Statement for the Use of Animals in Ophthalmic and Vision Research and the guidelines of the Animal Care and Use Committee at local University Medical School. Litters of 7-day old (P7) mice were exposed to an atmosphere of 75% oxygen in an airtight incubator for 5 days (P12), after which they were returned to room air for 5 days (P17). For quantification of oxygen-induced retinal neovascularization, mice on P17 were given an intraocular injection of 1 μl of rat anti-mouse platelet endothelial cell adhesion molecule-1 (PECAM-1) antibody (Pharmingen, San Jose, Calif.) under a dissecting microscope with Harvard pump microinjection apparatus. Mice were euthanized 12 hours after injection and eyes were fixed in PBS-buffered formalin for 5 hours. […] Retinal flat mounts were prepared and assessed with fluorescence microscope using imaging software. […]

[6] = tested on: choroidal neovascularization in C57BL/6J mice; format: in vivo; conditions: mouse, in vivo
Procedure: Parstatin (1-41), hydrophobic parstatin (1-26) fragment and hydrophilic parstatin (24-41) fragment were used in an in vivo mouse model of choroidal neovascularization. In particular, laser photocoagulation-induced rupture of Bruch's membrane was used to generate choroidal neovascularization as a preclinical disease model for age-related macular degeneration. Pathogen-free C57BL/6J (4-5 week-old) mice were treated in accordance with the Association for Research in Vision and Ophthalmology Statement for the Use of Animals in Ophthalmic and Vision Research and the guidelines of the Animal Care and Use Committee at local University Medical School.
C57BL/6J (4-5 week-old) mice were anesthetized with ketamine hydrochloride (100 mg/kg body weight) and xylazine-(4 mg/Kg body weight) and the pupils were dilated with 1% tropicamide. Laser photocoagulation (75 μm spot size, 0.1 sec duration, 120 mW) was performed in the 9, 12, and 3 o'clock positions of the posterior pole of the retina with the slit lamp delivery system of an Oculight GL diode laser (Index, Mountain View, Calif.) and a handheld cover slip as a contact lens to view the retina. Production of a bubble at the time of laser, which indicates rupture of Bruch's membrane, is an important factor in obtaining CNV. Therefore, only burns in which a bubble was produced were included in the study. Two weeks after rupture of Bruch's membrane, anesthetized mice were perfused with 50 mg/ml fluorescein-labelled-dextran (2×10^6 average molecular weight, Sigma-Aldrich, St. Louis, Mo.). The eyes were then dissected and fixed in 10% Formalin for 3 hours and choroidal flat mounts were examined by fluorescence microscopy. Image-Pro Plus software (Media Cybernetics, Silver Spring, Md.) was used to measure the total area of CNV at each rupture site by personnel blinded as to study treatments and groups.
Intraocular injections of parstatin peptides were performed with a Harvard pump microinjection apparatus and pulled glass micropipets. […] Choroidal neovascularization was assessed 14 days after laser treatment.

Molecule | infarct size, inhibitor alone [1] | infarct size / LVDP, inhibitor alone [2] | other results
C=C1[C@@H]2CC[C@H]3[C@]4(C)C[C@H](O[C@@H]5O[C@H](CO)[C@@H](OS(=O)(=O)O)[C@H](OS(=O)(=O)O)[C@H]5OC(=O)CC(C)C)C[C@@H](C(=O)O)[C@H]4CC[C@]3(C2)[C@H]1O [Atractyloside, atractyloside, reference compound] | no effect | – | –
COc1ccc(Cl)cc1C(=O)NCCc1ccc(S(=O)(=O)NC(=O)NC2CCCCC2)cc1 [Glibenclamide, glibenclamide, reference compound] | no effect | – | –
COC(=O)[C@@H](N)CCCNC(=N)N[N+](=O)[O-] [L-NMA, Nω-nitro-L-arginine methyl ester, reference compound] | without effect | no effect | –
O=c1onc2cnc3ccccc3n12 [ODQ, 1H-[1,2, 4]oxadiazolo-[4,3-a]quinoxalin-1-one, reference compound] | no effect | no effect | –
MGPRRLLLVAACFSLCGPLL-SARALTRSAPTPRDRANKETR (MGPRRLLLVAACFSLCGPLLSARALTRSAPTPRDRANKETR; Scrambled synthetic peptide) [modulated parstatin, human parstatin with amino acids 24 to 41 scrambled] | – | – | activation of Erk1/2 [3]: inhibit; bFGF-induced DNA synthesis [4]: inhibit
MGPRRLLLVAACFSLCGPLLSARTRARRPESKATNATLDPR (cysteines drawn unpaired) [parstatin (1-41)] | – | – | inotropic or chronotropic effects before ischemia ([2]; 1 μM): did not have inotropic or chronotropic effects; tolerability in newborn mice [5]: not well tolerated; baseline hemodynamics (heart rate, blood pressures) between groups ([1]; rat, in vivo): no significant differences; tolerability (slit lamp: irritation, inflammation, ocular toxicity; systemic toxicity) [6]: well tolerated
